Some test systems named below: 786-0 renal; COLO 205 colon; HOP-92 NSCLC; HS 578T breast; HT29 colon; IGROV1 ovarian; LOX IMVI melanoma; MDA-MB-231 breast; MDA-MB-435; MOLT-4 leukemia; RXF 393 renal; SF-268 CNS; UACC-62 melanoma.
Common to all, as to experiment: inhibition of tumour cell growth, NCI panel, 48 h

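In this assay, cells in 96-well plates receive the compound at five concentrations for 48 hours. Endpoints are linearly interpolated between the surrounding concentrations. TGI denotes the concentration required for complete inhibition of growth.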 Where only a bound is given, the exact number is not on record here.

As for `O=C(O)CN1CCN(CC(=O)O)CCN(CC(=O)O)CCN(CC(=O)O)CC1`, the TGI with 786-0 renal, in the assay on COLO 205 colon, in the assay on HOP-92 NSCLC, in the assay with HS 578T breast, in the assay with HT29 colon and with IGROV1 ovarian was above 100 µM throughout. In addition, the TGI with LOX IMVI melanoma, in the assay on MDA-MB-231 breast, with MDA-MB-435, in the assay on MOLT-4 leukemia, in the assay with RXF 393 renal and in the assay on SF-268 CNS was above 100 µM throughout. Besides, in the assay with UACC-62 melanoma, the TGI was above 100 µM.
Take `COC(=O)C1(O)c2ccccc2N=C2C(=O)c3ccccc3N21` (centres undefined): the TGI in the assay with 786-0 renal, in the assay on COLO 205 colon, with HOP-92 NSCLC, with HS 578T breast, in the assay on HT29 colon and in the assay with IGROV1 ovarian was above 100 µM each time. Further, the TGI with LOX IMVI melanoma was above 100 µM; in the assay with MDA-MB-231 breast, above 100 µM; with MDA-MB-435, 26.3 µM; in the assay with MOLT-4 leukemia it was above 100 µM; with RXF 393 renal, above 100 µM; in the assay with SF-268 CNS, above 100 µM.
As to `CCN(CC)CCS(=O)c1c2cc(OC)ccc2nc2ccc(OC)cc12` (centres undefined), the TGI in the assay on 786-0 renal is 4.35 µM; with COLO 205 colon, 3.99 µM; in the assay on HOP-92 NSCLC, above 24.3 µM; in the assay on HS 578T breast, 29.1 µM; in the assay with HT29 colon, 12 µM; in the assay with IGROV1 ovarian it was 8.52 µM. For the same compound, the TGI in the assay on LOX IMVI melanoma was above 42.9 µM; in the assay on MDA-MB-231 breast it was 28.4 µM; with MDA-MB-435, 26.6 µM; with MOLT-4 leukemia it was above 21.2 µM; in the assay on RXF 393 renal it was 24.6 µM; with SF-268 CNS it was 23.5 µM. In the assay with UACC-62 melanoma, this compound gave a TGI of 36.8 µM.
On to `Cc1cc2c(s1)C(=O)c1sccc1C2=O`, for which the TGI worked out at 3.26 µM in the assay with 786-0 renal; 3.36 µM in the assay with COLO 205 colon; 2.97 µM with HOP-92 NSCLC; 2.52 µM in the assay on HS 578T breast; 4.3 µM in the assay on HT29 colon; 3.05 µM in the assay with IGROV1 ovarian. Further, the TGI is 0.422 µM in the assay on LOX IMVI melanoma; 2.89 µM in the assay with MDA-MB-231 breast; 0.318 µM with MDA-MB-435; above 22.4 µM in the assay with MOLT-4 leukemia; 2.46 µM with RXF 393 renal; 2.09 µM in the assay with SF-268 CNS. This compound also returned a TGI in the assay on UACC-62 melanoma of 0.524 µM.
For `C[C@]12CC(c3ccccc3O1)C(C(=O)NC13CC4CC(CC(C4)C1)C3)C(=O)N2` (some centres undefined), the TGI with 786-0 renal was 40.8 µM; in the assay with COLO 205 colon, 31.7 µM; in the assay with HOP-92 NSCLC, 55.8 µM; with HS 578T breast, above 100 µM; in the assay with HT29 colon it was 30.8 µM; in the assay with IGROV1 ovarian, above 100 µM. Also, the TGI was 57.9 µM with LOX IMVI melanoma; above 100 µM with MDA-MB-231 breast; 65.1 µM in the assay on MDA-MB-435; 36.7 µM with MOLT-4 leukemia; 57.6 µM with RXF 393 renal; 96 µM in the assay with SF-268 CNS. The compound further returned a TGI in the assay on UACC-62 melanoma above 100 µM.
For `CNC(=O)c1n[nH][nH]c1=O`, the TGI with 786-0 renal, with COLO 205 colon, in the assay with HOP-92 NSCLC, in the assay on HS 578T breast, with HT29 colon and with IGROV1 ovarian was above 100 µM throughout. Besides, the TGI in the assay with LOX IMVI melanoma, with MDA-MB-231 breast, with MDA-MB-435, in the assay with MOLT-4 leukemia, in the assay with RXF 393 renal and in the assay on SF-268 CNS was above 100 µM in each case. Moreover, the TGI in the assay with UACC-62 melanoma was above 100 µM.
On to `O=S1(=O)CCN(Cc2ccccc2)/C1=N\S(=O)(=O)c1ccc(Cl)cc1`, for which the TGI with 786-0 renal was 34.5 µM; with COLO 205 colon it was 34.3 µM; in the assay on HOP-92 NSCLC, 35.3 µM; with HS 578T breast, 73.8 µM; in the assay on HT29 colon it was 32.6 µM; in the assay with IGROV1 ovarian, 32.5 µM. For the same compound, the TGI is 33.5 µM in the assay with LOX IMVI melanoma; above 100 µM in the assay with MDA-MB-231 breast; 36.2 µM with MDA-MB-435; 49.9 µM in the assay on MOLT-4 leukemia; 34.6 µM with RXF 393 renal; 31.4 µM with SF-268 CNS. For the same compound, the TGI in the assay on UACC-62 melanoma came to 32 µM.
For the compound `CC(C)(C)N1NC1C1NN1C(C)(C)C` (centres undefined), the TGI in the assay on 786-0 renal, in the assay on COLO 205 colon, with HOP-92 NSCLC, with HS 578T breast, in the assay with HT29 colon and in the assay on IGROV1 ovarian was above 100 µM in each case. Further, the TGI with LOX IMVI melanoma, in the assay with MDA-MB-231 breast, in the assay with MDA-MB-435, in the assay on MOLT-4 leukemia, with RXF 393 renal and with SF-268 CNS was above 100 µM throughout. The TGI in the assay on UACC-62 melanoma is above 100 µM.
In the case of `CCCNC(=S)/N=C\c1c(O)c2ccccc2oc1=O`, the TGI with 786-0 renal, in the assay on COLO 205 colon, in the assay with HOP-92 NSCLC, with HS 578T breast, in the assay with HT29 colon and in the assay with IGROV1 ovarian was above 100 µM in each case. Further, the TGI in the assay with LOX IMVI melanoma, in the assay on MDA-MB-231 breast, in the assay with MDA-MB-435, in the assay on MOLT-4 leukemia, in the assay on RXF 393 renal and in the assay on SF-268 CNS was above 100 µM in each case. In the assay with UACC-62 melanoma, this compound showed a TGI above 100 µM.
In the case of `CC(=O)CCC[C@@H](C)[C@@H]1O[C@H]([C@@]2(C)CCC(=O)O2)C[C@H]2C(CSc3ccccc3)C(=O)O[C@@H]12` (some centres undefined), the TGI in the assay on 786-0 renal is 42.2 µM; in the assay on COLO 205 colon, 31.4 µM; in the assay on HOP-92 NSCLC it was 39.1 µM; in the assay with HS 578T breast it was above 41.6 µM; in the assay on HT29 colon, 40.1 µM; in the assay with IGROV1 ovarian it was above 38 µM. The TGI worked out at 38.2 µM in the assay with LOX IMVI melanoma; 37.3 µM with MDA-MB-231 breast; 45.6 µM with MDA-MB-435; 16 µM in the assay with MOLT-4 leukemia; 15.9 µM with RXF 393 renal; 55.1 µM with SF-268 CNS. In the assay with UACC-62 melanoma, this compound showed a TGI of 28.5 µM.

These data come from PubChem BioAssay (NCI).
